Tested on: yeast genes (level of expressed mRNA)
Assay: DNA chip analysis of expressed mRNA of yeast genes after 2 h culture with a toxic chemical substance
Type: cell-based, Saccharomyces cerevisiae S288C
Method: Yeast (Saccharomyces cerevtisiae S288C (α SUC2mal mel gap2 CUP1)) were cultured at 25° C. on YPD medium (yeast extract 1%, polypepton 2%, glucose 2%). One of toxic chemical substances was added to the cell at logarithmic growth phase, and the cell was further cultured for two hours. Cell was cultured without any chemical substance in the same condition, and was used as control. Concentrations of the chemical substances were defined to inhibit the growth of the yeast but not lead to death.
After the completion of cultivation, the culture was centrifuged to collect the cells. To the cells, sodium acetate buffer (50 mM sodium acetate, 10 mM EDTA, 1% SDS) was added, and the mixture was shaken at 65° C. for five minutes, followed by returning to room temperature, and obtaining the supernatant, which procedure was repeated two times. To the supernatant, ½ amount of a solution of phenol/chloroform was added, and the mixture was centrifuged to give a supernatant, which was added with an equal amount of chloroform, and the mixture was centrifuged to give a supernatant. To the supernatant, an equal amount of isopropanol containing 0.3 M sodium acetate was added, and the mixture was allowed to stand at room temperature for 30 minutes, after which the mixture was centrifuged to give a sediment of the whole RNAs. Seventy % ethanol was added to the sediment, and the mixture was again centrifuged to give a sediment, which was then dried and dissolved in water. mRNA was isolated from the whole RNAs as followings. In view of the fact that a poly A chain is attached to the 3′ terminus of mRNA, a polynucleotide having a poly T structure which was immobilized on the surface of latex beads was used to trap the mRNA, and then the mRNA was washed and eluted with spine column (Oligotex-dT30<Super>mRNA Purification Kit, Takara). Reverse transcription of the mRNA was conducted with a reverse transcriptase (Super Script II Reverse Transcriptase; catalogue No. 18064-014, GibcoBRL) using fluorescence-labeled nucleotides to give cDNAs that were introduced with Cy3-dUTP or Cy5-dUTP during the reverse transcription.
The labeled cDNAs were dissolved in TE buffer (10 mM Tris-HCl/1 mM EDTA, pH8.0), and the solution was dropped on the DNA chip containing the whole genes of yeast (DNA Chip Research Inc. Japan) so that the cDNAs were hybridized on the DNA chip at 65° C. for over 12 hours. The fluoresces intensity of the DNA chip was read with a scanner, and the ratio relative to the fluorescence intensity resulting from the absence of chemical substance was estimated as the following, which is shown in Tables 1 to 9: [formula]
In the Tables, “Intensity” indicated in the rightmost column is a value of the level of expressed mRNA of each gene in control cells as divided by the average level of the expressions of the whole genes.

CCCCCCCCCCCCOS(=O)(=O)[O-].[Na+] [(18), sodium lauryl sulfate]
0.5: The level of expressed mRNA in the presence of chemical substance/absence: YDR316W (gene YDR316W) | The level of expressed mRNA in the presence of chemical substance/absence: YGR211W (gene YGR211W)
2.4: level of expressed mRNA in the presence of chemical substance/in its absence (gene YBR111C) | level of expressed mRNA in the presence of chemical substance/in its absence (gene YBR183W)
1.5: The level of expressed mRNA in the presence of chemical substance/absence: YBR129C (gene YBR129C) | The level of expressed mRNA in the presence of chemical substance/absence: YCL056C (gene YCL056C) | level of expressed mRNA in the presence of chemical substance/in its absence (gene YGL209W) | level of expressed mRNA in the presence of chemical substance/in its absence (gene YGR282C)
1.1: The level of expressed mRNA in the presence of chemical substance/absence: YAL014C (gene YAL014C) | The level of expressed mRNA in the presence of chemical substance/absence: YBR013C (gene YBR013C) | level of expressed mRNA in the presence of chemical substance/in its absence (gene YBR299W) | The level of expressed mRNA in the presence of chemical substance/absence: YDL089W (gene YDL089W) | The level of expressed mRNA in the presence of chemical substance/absence: YDR090C (gene YDR090C) | The level of expressed mRNA in the presence of chemical substance/absence: YFR026C (gene YFR026C) | The level of expressed mRNA in the presence of chemical substance/absence: YGL041C (gene YGL041C) | The level of expressed mRNA in the presence of chemical substance/absence: YGL057C (gene YGL057C) | level of expressed mRNA in the presence of chemical substance/in its absence (gene YGL154C) | The level of expressed mRNA in the presence of chemical substance/absence: YGR038W (gene YGR038W) | The level of expressed mRNA in the presence of chemical substance/absence: YGR277C (gene YGR277C)
1.3: level of expressed mRNA in the presence of chemical substance/in its absence (gene YBR068C) | The level of expressed mRNA in the presence of chemical substance/absence: YBR162C (gene YBR162C) | The level of expressed mRNA in the presence of chemical substance/absence: YDR140W (gene YDR140W) | level of expressed mRNA in the presence of chemical substance/in its absence (gene YEL020C) | level of expressed mRNA in the presence of chemical substance/in its absence (gene YGL104C) | level of expressed mRNA in the presence of chemical substance/in its absence (gene YGL134W)
1.0: level of expressed mRNA in the presence of chemical substance/in its absence (gene YAL038W) | The level of expressed mRNA in the presence of chemical substance/absence: YAR047C (gene YAR047C) | The level of expressed mRNA in the presence of chemical substance/absence: YBR255W (gene YBR255W) | level of expressed mRNA in the presence of chemical substance/in its absence (gene YDR009W) | The level of expressed mRNA in the presence of chemical substance/absence: YDR221W (gene YDR221W) | The level of expressed mRNA in the presence of chemical substance/absence: YDR338C (gene YDR338C) | level of expressed mRNA in the presence of chemical substance/in its absence (gene YDR410C) | The level of expressed mRNA in the presence of chemical substance/absence: YDR485C (gene YDR485C) | The level of expressed mRNA in the presence of chemical substance/absence: YEL044W (gene YEL044W) | level of expressed mRNA in the presence of chemical substance/in its absence (gene YGL039W) | The level of expressed mRNA in the presence of chemical substance/absence: YGL183C (gene YGL183C) | The level of expressed mRNA in the presence of chemical substance/absence: YGL223C (gene YGL223C) | The level of expressed mRNA in the presence of chemical substance/absence: YGR198W (gene YGR198W) | The level of expressed mRNA in the presence of chemical substance/absence: YGR237C (gene YGR237C) | The level of expressed mRNA in the presence of chemical substance/absence: YGR266W (gene YGR266W)
2.0: level of expressed mRNA in the presence of chemical substance/in its absence (gene YBR145W)
1.6: level of expressed mRNA in the presence of chemical substance/in its absence (gene YAR071W) | level of expressed mRNA in the presence of chemical substance/in its absence (gene YBR014C) | level of expressed mRNA in the presence of chemical substance/in its absence (gene YCR098C) | The level of expressed mRNA in the presence of chemical substance/absence: YDL046W (gene YDL046W) | level of expressed mRNA in the presence of chemical substance/in its absence (gene YDR019C) | The level of expressed mRNA in the presence of chemical substance/absence: YDR071C (gene YDR071C) | level of expressed mRNA in the presence of chemical substance/in its absence (gene YGR060W)
0.7: level of expressed mRNA in the presence of chemical substance/in its absence (gene YGL022W) | The level of expressed mRNA in the presence of chemical substance/absence: YGL088W (gene YGL088W) | The level of expressed mRNA in the presence of chemical substance/absence: YGR210C (gene YGR210C)
3.2: level of expressed mRNA in the presence of chemical substance/in its absence (gene YER026C)
0.9: The level of expressed mRNA in the presence of chemical substance/absence: YAL018C (gene YAL018C) | The level of expressed mRNA in the presence of chemical substance/absence: YAR064W (gene YAR064W) | level of expressed mRNA in the presence of chemical substance/in its absence (gene YBR023C) | The level of expressed mRNA in the presence of chemical substance/absence: YBR124W (gene YBR124W) | level of expressed mRNA in the presence of chemical substance/in its absence (gene YBR222C) | level of expressed mRNA in the presence of chemical substance/in its absence (gene YCR037C) | The level of expressed mRNA in the presence of chemical substance/absence: YDR109C (gene YDR109C) | The level of expressed mRNA in the presence of chemical substance/absence: YDR128W (gene YDR128W) | The level of expressed mRNA in the presence of chemical substance/absence: YDR133C (gene YDR133C) | The level of expressed mRNA in the presence of chemical substance/absence: YDR250C (gene YDR250C) | The level of expressed mRNA in the presence of chemical substance/absence: YDR271C (gene YDR271C) | The level of expressed mRNA in the presence of chemical substance/absence: YDR366C (gene YDR366C) | level of expressed mRNA in the presence of chemical substance/in its absence (gene YDR502C) | level of expressed mRNA in the presence of chemical substance/in its absence (gene YER069W) | level of expressed mRNA in the presence of chemical substance/in its absence (gene YGL126W)
1.7: The level of expressed mRNA in the presence of chemical substance/absence: YER092W (gene YER092W)
0.3: level of expressed mRNA in the presence of chemical substance/in its absence (gene YCL064C)
1.9: level of expressed mRNA in the presence of chemical substance/in its absence (gene YBR035C) | The level of expressed mRNA in the presence of chemical substance/absence: YBR287W (gene YBR287W) | level of expressed mRNA in the presence of chemical substance/in its absence (gene YDR487C)
1.2: The level of expressed mRNA in the presence of chemical substance/absence: YAL017W (gene YAL017W) | The level of expressed mRNA in the presence of chemical substance/absence: YBR012C (gene YBR012C) | The level of expressed mRNA in the presence of chemical substance/absence: YBR063C (gene YBR063C) | The level of expressed mRNA in the presence of chemical substance/absence: YBR066C (gene YBR066C) | The level of expressed mRNA in the presence of chemical substance/absence: YDR078C (gene YDR078C) | The level of expressed mRNA in the presence of chemical substance/absence: YDR281C (gene YDR281C) | The level of expressed mRNA in the presence of chemical substance/absence: YDR425W (gene YDR425W) | The level of expressed mRNA in the presence of chemical substance/absence: YDR504C (gene YDR504C) | The level of expressed mRNA in the presence of chemical substance/absence: YER182W (gene YER182W) | The level of expressed mRNA in the presence of chemical substance/absence: YFL042C (gene YFL042C) | level of expressed mRNA in the presence of chemical substance/in its absence (gene YFR015C) | The level of expressed mRNA in the presence of chemical substance/absence: YGL045W (gene YGL045W)
2.1: The level of expressed mRNA in the presence of chemical substance/absence: YCR007C (gene YCR007C) | level of expressed mRNA in the presence of chemical substance/in its absence (gene YGL001C) | The level of expressed mRNA in the presence of chemical substance/absence: YGR250C (gene YGR250C)
0.6: The level of expressed mRNA in the presence of chemical substance/absence: YCL044C (gene YCL044C)
1.4: level of expressed mRNA in the presence of chemical substance/in its absence (gene YAL054C) | level of expressed mRNA in the presence of chemical substance/in its absence (gene YDL022W) | The level of expressed mRNA in the presence of chemical substance/absence: YDL193W (gene YDL193W) | The level of expressed mRNA in the presence of chemical substance/absence: YDL233W (gene YDL233W)
2.5: level of expressed mRNA in the presence of chemical substance/in its absence (gene YEL011W)
4.4: The level of expressed mRNA in the presence of chemical substance/absence: YGR243W (gene YGR243W)
0.8: level of expressed mRNA in the presence of chemical substance/in its absence (gene YAL012W) | The level of expressed mRNA in the presence of chemical substance/absence: YBL044W (gene YBL044W) | The level of expressed mRNA in the presence of chemical substance/absence: YBL100C (gene YBL100C) | level of expressed mRNA in the presence of chemical substance/in its absence (gene YBR029C) | The level of expressed mRNA in the presence of chemical substance/absence: YBR051W (gene YBR051W) | The level of expressed mRNA in the presence of chemical substance/absence: YBR281C (gene YBR281C) | level of expressed mRNA in the presence of chemical substance/in its absence (gene YCL009C) | level of expressed mRNA in the presence of chemical substance/in its absence (gene YCR048W) | The level of expressed mRNA in the presence of chemical substance/absence: YDR278C (gene YDR278C) | level of expressed mRNA in the presence of chemical substance/in its absence (gene YDR380W) | The level of expressed mRNA in the presence of chemical substance/absence: YDR421W (gene YDR421W) | The level of expressed mRNA in the presence of chemical substance/absence: YFR056C (gene YFR056C) | level of expressed mRNA in the presence of chemical substance/in its absence (gene YGL253W) | The level of expressed mRNA in the presence of chemical substance/absence: YGR139W (gene YGR139W) | The level of expressed mRNA in the presence of chemical substance/absence: YGR156W (gene YGR156W)
1.8: level of expressed mRNA in the presence of chemical substance/in its absence (gene YAL044C) | The level of expressed mRNA in the presence of chemical substance/absence: YAL049C (gene YAL049C) | level of expressed mRNA in the presence of chemical substance/in its absence (gene YBL001C) | level of expressed mRNA in the presence of chemical substance/in its absence (gene YBR050C) | The level of expressed mRNA in the presence of chemical substance/absence: YDL173W (gene YDL173W)
